Data from US12102432B2, “Uses of transdermal glomerular filtration rate measurement in continuous renal replacement therapy” (MediBeacon Inc., priority 2018, dated 2024).
“Also recorded” adds a separate entry of the source.

What was measured:
[1] = In vitro continuous hemodialysis (CVVHD) model, saturation coefficient; assay type: in vitro ADME, bovine; conditions: for Saturation coefficient (mean ± SD): blood flow 200 mL/min
Procedure: For CVVHD experiments, the CLTM was assessed using a previously validated in vitro CVVHD model as illustrated in FIG. 6. Commonly used effluent flow rates of 16, 33, 50, and 100 mL/min, and a blood flow rate of 200 mL/min were used. Effluent was prepared according to directions from the manufacturer by mixing sodium bicarbonate powder (NATURALYTE® 4000, Fresenius Medical Care, Waltham, Mass., USA) with distilled water in a 45:1 ratio. After adding MB-102 and urea to the blood, it was recirculated through the circuit for 5 min for uniform coating of the extracorporeal circuit. A single-pass mode of the CVVHD procedure with four different flow rates was run in random order for each hemodiafilter. Blood samples were collected from the pre- and post-filter ports, and spent effluent samples were taken from the effluent port 5 min after initiation of the CVVHD experiments at all four effluent flow rates. These experiments were conducted on 6 new hemodiafilters and CRRT tubing sets. Saturation coefficient (SA) and CLTM were calculated as follows:
[formula] CLdiff=(SA×Qd) Equation (6)
where SA is the saturation coefficient; CUF is the concentration in the effluent; Ca is the concentration of the solute in the pre-filter; CV is the concentration of the solute in the post-filter; CLdiff is the diffusion clearance for post-filter replacement; Qd is the effluent flow rate.
(§1) All blood samples were collected and centrifuged at 3000 rpm for 10 minutes. The plasma and effluent samples were transferred to cryovials in duplicate and stored at −80° C. until analysis. BUN concentrations were analyzed with Advia 1800 (Siemens Healthcare Diagnostic Inc., Tarrytown, N.Y., USA) having a lower limit of quantification of 5 mg/dL.
Similarly, six CVVH and CVVHD experiments with each hemodiafilter were used to detect a 25% difference in MB-102 CLTM between hemodiafilters. Assumptions used in these calculations included: a power of 90% and a standard deviation of 10% with a significance level of p<0.05. A two-tailed, unpaired t-test was used to compare differences between the two hemodiafilters, and the analysis of variance was used to compare different QUF and Qd within each hemodiafilter type.

[2] = Adsorption of MB-102 to CRRT apparatus, in vitro CVVH model; assay type: in vitro ADME, bovine; conditions: for mean percent change at the end of experiment: average of 6 experiments, 60 min
Procedure: As an initial step, it was determined if the compound MB-102 adsorbs onto the hemodiafilter, tubing or other parts of the CRRT instrument. This study used a continuous venovenous hemofiltration (CVVH) configuration to assess MB-102 adsorptive clearance with a previously validated in vitro CVVH model using 1 L of pH regulated, citrate-anti-coagulated bovine blood. Using a Braun DIAPACT™ CRRT system, two different hemodiafilters were tested: the HF1400 and the M150 hemodiafilters. New bovine blood, hemodiafilters, and CRRT tubing sets were used in each experiment. The blood was continuously stirred and maintained at 37° C. in a water bath during all experiments. Reconstituted MB-102 was added to the blood to achieve a final concentration of ˜6.2 mg/L. Urea was used as a control and added to the blood to produce a blood urea nitrogen (BUN) concentration of ˜75 mg/dL. Blood flow rates of 200 mL/min with an ultrafiltration rate (Quf) of 33 mL/min were tested. This maximized MB-102 contact with the membranes, both on the blood side and via convection through the hemodiafilter membrane. A closed system was developed to maintain a constant volume in the extracorporeal system. The effluent was used as the replacement fluid which was returned to the blood as a post-filter replacement fluid to maintain a constant blood volume. The CRRT instrument was primed with normal saline before operation, consequently the urea and MB-102 dilution caused by the residual priming solution was accounted for. Blood samples were collected from the pre-filter port at 0 (baseline), 5 (at which time mixing was complete), 10, 20, 30, and 60 minutes. Each experiment was repeated six times with new hemodiafilters and tubing sets.
Equations used to calculate the dilution factor and adsorption are as follows:
[formula] wherein C0 is the concentration of MB-102 in the pre-filter at time=0 minutes; and C60 is the concentration of MB-102 in the pre-filter at time=60 minutes.
[formula] where [Urea0] is the urea concentration in the pre-filter at time=0 minutes; and [Urea60] is the urea concentration in the pre-filter at time=60 minutes.
as §1, with “mg/dL. […]” for “mg/dL.”

[3] = In vivo clearance by CVVHD in porcine model with bilateral nephrectomy; parameters: species or system Swine
[4] = assembly on chest (QLS26), blood flow rate 100, effluent flow rate 20 mL/min, 1st of four regions
[5] = assembly on chest (QLS26), blood flow rate 200, effluent flow rate 35 mL/min, 2nd of four regions
[6] = assembly on chest (QLS26), blood flow rate 200, effluent flow rate 35 mL/min, 4th of four regions
[7] = assembly on sternum (QLS25), blood flow rate 100, effluent flow rate 20 mL/min, 1st of four regions
[8] = assembly on sternum (QLS25), blood flow rate 100, effluent flow rate 20 mL/min, 3rd of four regions
[9] = assembly on sternum (QLS25), blood flow rate 200, effluent flow rate 35 mL/min, 2nd of four regions
[10] = assembly on sternum (QLS25), blood flow rate 200, effluent flow rate 35 mL/min, 4th of four regions

Saturation coefficient (mean ± SD) ([1]; CVVHD, HF1400, Qd 16.7 mL/min): 1.27 ± 0.07
Saturation coefficient (mean ± SD) ([1]; CVVHD, HF1400, Qd 33.3 mL/min): 1.27 ± 0.09
Saturation coefficient (mean ± SD) ([1]; CVVHD, HF1400, Qd 50 mL/min): 1.37 ± 0.07
Saturation coefficient (mean ± SD) ([1]; CVVHD, HF1400, Qd 100 mL/min): 1.02 ± 0.20
Saturation coefficient (mean ± SD) ([1]; CVVHD, M150, Qd 16.7 mL/min): 1.06 ± 0.17
Saturation coefficient (mean ± SD) ([1]; CVVHD, M150, Qd 33.3 mL/min): 1.11 ± 0.06
Saturation coefficient (mean ± SD) ([1]; CVVHD, M150, Qd 50 mL/min): 1.60 ± 0.06
Saturation coefficient (mean ± SD) ([1]; CVVHD, M150, Qd 100 mL/min): 0.84 ± 0.04
Saturation coefficient (SA), overall summary in text ([1]; CVVHD, both hemodiafilters): approximately 1
mean SA values ([1]; low effluent flow rates (16-50 mL/min)): approximately unity
mean percent change at the end of experiment ([2]; HF1400 hemodiafilter): 18.7%
mean percent change at the end of experiment ([2]; M150 hemodiafilter): 18.9%
MB-102 Clearance Rate Constant [3, 4]: 0.1439 h⁻¹
RDTC [3, 4]: 6.94 h
RDTC ([3]; assembly on chest (QLS26), blood flow rate 100, effluent flow rate 20 mL/min, 3rd of four regions): 11.87 h
MB-102 Clearance Rate Constant [3, 5]: 0.1769 h⁻¹
RDTC [3, 5]: 5.65 h
MB-102 Clearance Rate Constant [3, 6]: 0.1192 h⁻¹
RDTC [3, 6]: 8.39 h
MB-102 Clearance Rate Constant [3, 7]: 0.1174 h⁻¹
RDTC [3, 7]: 8.52 h
MB-102 Clearance Rate Constant [3, 8]: 0.0871 h⁻¹
RDTC [3, 8]: 11.48 h
MB-102 Clearance Rate Constant [3, 9]: 0.1870 h⁻¹
RDTC [3, 9]: 5.35 h
MB-102 Clearance Rate Constant [3, 10]: 0.1288 h⁻¹
RDTC [3, 10]: 7.76 h
SMILES: Nc1nc(C(=O)N[C@H](CO)C(=O)O)c(N)nc1C(=O)N[C@H](CO)C(=O)O [MB-102, (2R,2′R)-2,2′-((3,6-diaminopyrazine-2,5-dicarbonyl)bis(azanediyl))bis(3-hydroxypropanoic acid)]
adsorption to CRRT materials (tubing, hemodiafilters) ([2]; HF1400 and M150 hemodiafilters): not observed; also recorded: does not bind
